Measurements as given in US20040013649A1, “Cancer vaccines and methods of using the same” (Inex Pharmaceuticals Corporation, priority 2002, published 2004).
Entries after “also recorded” stand apart in the source; their conditions may differ. [5mC] = 5-methylcytosine

Assays:
[1] = tested on: dendritic cells, NK cells, and CD8+ T-cells; test: cytokine release assay after subcutaneous immunization; type: in vivo, C57BI/6 mice; conditions: lipid encapsulated; 100 μg ODN + 20 μg antigen s.c. q7d×3; FIGS. 10 and 11
Description: To monitor immunological response to subcutaneous immunization, antigen specific cellular immune responses were monitored using MHC Class.l-tetramer analyses, cytotoxicity assays and cytokine release assays while humoral immune responses were monitored by measuring plasma antibody levels. Cellular and humoral responses were assessed in C57BI/6 and Balb/C mice respectively (5 animals per group). For analysis of the cellular response, mice were immunized subcutaneously with 3 injections on a q7d×3 dosing regimen on Days 0, 7 and 14 at a dose of 100 μg oligonucleotide in combination with 20 μg of antigen . The spleen, liver, lymph node and blood tissues were collected on Day 21. Solid tissues were mechanically dissociated and cells were processed to collect mononuclear cells. […]
The aim of the cytokine release assay is to detect antigen-specific immune effector cells that are activated to produce and secrete cytokines, specifically IFN-γ, in response to stimulation with a specific antigen. Cells were isolated from the spleen, liver, blood and lymph nodes of immunized animals and analyzed using the Cytokine Secretion Assay (Miltenyi Biotec). […] Cells were then labeled with fluorescently labeled antibodies against IFN-γ and various phenotype markers and analyzed by flow cytometry to allow detection of specific cell types that were activated to secrete IFN-γ. […]

dendritic cells [2] = test: in vivo dendritic cell activation (IFN-γ secreting cells); conditions: encapsulated in POPC:CHOL:DODMA:PEGDMG 20:45:25:10
Description: PBS was used as a control.
FIG. 3 clearly illustrates the ability of encapsulated ODN1m to activate dendritic cells. […] Dendritic cell activation was measured by the percentage of IFN-γ secreting cells. These cells were labeled with an antibody to indicate the cell type and only those having the dendritic cell marker were included in this measurement.

[3] = tested on: EG.7 Ova expressing tumor cells; test: prophylactic anti-tumor efficacy, EG7-OVA tumor model, q7d×3; type: in vivo, C57BI/6 mice
Description: Efficacy studies. E.G7-OVA or EL-4 thymoma cell lines were used throughout the study. These cells were cultured in vitro according to established methods. […] Tumor measurements were made by repeated perpendicular measurements of tumor dimensions and using the formula: […]
Anti-tumor efficacy induced by subcutaneous immunization was assessed in C57BI/6 (5 animals per group) in a prophylactic immunization model. Mice were immunized subcutaneously with 3 injections on a q7d×3 dosing regimen on Days 0, 7 and 14 at a dose of 100 μg oligonucleotide and 20 μg of OVA antigen dose. […] Mice were monitored 3 times weekly to assess tumor growth and weight gain. Control mice were injected with one of PBS or HBS and […] of OVA antigen on the same schedule described above. Oligonucleotides were encapsulated in a lipid particle having a lipid composition of one of POPC: CHOL: DODAP:PEGCer14 or DSPC: CHOL: DODAP:PEGCer14 each in a ratio of 25:45:20:10. All comparisons of methylated and unmethylated oligonucleotides were done using like lipid particles. Results from these efficacy experiments are detailed in FIGS. 12-15, 18-21, and 25-28. Day 0 on each of the Figures is the day each animal was challenged with the tumor.

dendritic cells [4] = test: activation of dendritic cells (CD86 co-expression); type: in vivo, ICR mice; conditions: lipid encapsulated, single i.v. injection 20 mg/kg, versus PBS control = 100%
Description: ICR mice were immunized with a single intravenous injection of encapsulated oligonucleotides at a dose of 20 mg/kg and the control ICR mouse was injected with PBS. […] Each of these markers are specific to dendritic cells though they may represent different cell sub-populations. In each of FIGS. 4 and 5 the control was plotted as equivalent to 100% and the effect of ODN1m for each backbone configuration was plotted as a percentage of that control.
On collection of the samples the cells were first analyzed by flow cytometry for the co-expression of CD86, which indicates cell activation, and the dendritic cell phenotype markers CD11c and DEC205. The percentage of activated dendritic cells was plotted against a PBS control equivalent to 100%. […] Similar results are shown when measuring DEC205 positive dendritic cells in FIG. 5 panels.

**Q.** With “ODN1m: 5′-TAAZGTTGAGGGGCAT-3, SEQ ID NO: 4, Z = methylated cytosine (DNA TAACGTTGAGGGGCAT; DNA, [5mC] at 4, backbone not given here; tested with both phosphodiester and phosphorothioate backbones)” as the substance, how does the “immune stimulation (cytokine secretion of dendritic cells, NK cells, CD8+ T-cells), methylated normalized to unmethylated ODN” value [1] read?
**A.** consistently at least equivalent to, and often better than

**Q.** And the “dendritic cell activation (percentage of IFN-γ secreting cells)” value (dendritic cells [2])?
**A.** more active than its unmethylated counterpart; also recorded: more active than the unmethylated counterpart ODN1

**Q.** What about the “reduction in tumor growth” value ([3]; free ODN, 100 μg ODN + 20 μg OVA s.c. q7d×3, tumor challenge Day 21) of the same substance?
**A.** approached the rate of the control animal

**Q.** And the “reduction in tumor growth” value ([3]; lipid encapsulated ODN, PO backbone, 100 μg ODN + 20 μg OVA s.c. q7d×3)?
**A.** therapeutic efficacy was greatest with the methylated version 32 days after transplantation

**Q.** What about the “reduction in tumor growth” value ([3]; lipid encapsulated ODN, PS backbone, 100 μg ODN + 20 μg OVA s.c. q7d×3) of the same substance?
**A.** equal in therapeutic efficacy in comparison to the unmethylated ODN1; also recorded: improved efficacy

**Q.** What about the “percentage of tumor free animals” value ([3]; lipid encapsulated ODN, FIG. 19A) of the same substance?
**A.** greater percentage of tumor free animals

**Q.** And the “number of animals remaining in the study” value ([3]; lipid encapsulated ODN, FIG. 19B)?
**A.** essentially identical throughout the study

**Q.** And the “survival rate of mice” value ([3]; lipid encapsulated ODN, versus unmethylated counterpart)?
**A.** increase in the survival rate

**Q.** And the “CD86 expression on dendritic cells” value (dendritic cells [4])?
**A.** induced CD86 expression on CD11c positive dendritic cells; also recorded: more active than the unmethylated counterpart ODN1
